# Test results: patent US8618151B2, “Inhibitors of HCV NS5A” (Presidio Pharmaceuticals, Inc., priority 2008, dated 2013)
# Tested on: HCV genotype 1b replicon
# Test: HCV replicon assay (1b_Huh-Luc/Neo-ET cell line, luciferase readout)
# Assay type: cell-based
# Settings: Hepatitis C virus, Huh-7, 72 h, read-out: Inhibition of HCV genotype 1b
# Method: Biological activity of the compounds of the invention was determined using an HCV replicon assay. The 1b_Huh-Luc/Neo-ET cell line persistently expressing a bicistronic genotype 1b replicon in Huh 7 cells was obtained from ReBLikon GMBH. This cell line was used to test compound inhibition using luciferase enzyme activity readout as a measurement of compound inhibition of replicon levels.
# On Day 1 (the day after plating), each compound is added in triplicate to the cells. Plates incubated for 72 h prior to running the luciferase assay. Enzyme activity was measured using a Bright-Glo Kit (cat. number E2620) manufactured by Promega Corporation. The following equation was used to generate a percent control value for each compound. % Control=(Average Compound Value/Average Control)*100
# The EC50 value was determined using GraphPad Prism and the following equation: Y=Bottom+(Top−Bottom)/1+10^((Log IC50−X)*HillSlope))
# EC50 values of compounds are repeated several times in the replicon assay.
row,Compound,EC50
1,COC(=O)N[C@@H](C(=O)N1CCC[C@H]1c1nc(-c2cnc3cc(-c4ccc(-c5cnc([C@@H]6CCCN6C(=O)[C@H](NC(=O)OC)c6ccccc6)[nH]5)cn4)ccc3c2)c[nH]1)c1ccccc1 [compound 80],< 1 nM
2,COC(=O)N[C@H](C(=O)N1CCC[C@H]1c1ncc(-c2ccc(-c3ccc4cc(-c5c[nH]c([C@@H]6CCCN6C(=O)[C@H](NC(=O)OC6CCOCC6)c6ccccc6)n5)cnc4c3)nc2)[nH]1)C(C)C [compound 81],< 1 nM
3,COC(=O)N[C@H](C(=O)N1CCC[C@H]1c1ncc(-c2ccc(-c3ccc4cc(-c5c[nH]c([C@@H]6CCCN6C(=O)[C@H](NC(=O)OC(C)(C)C)c6ccccc6)n5)cnc4c3)nc2)[nH]1)C(C)C [compound 82],< 1 nM
4,COC(=O)N[C@H](C(=O)N1CCC[C@H]1c1nc(-c2ccc3cc(-c4ccc(-c5cnc([C@@H]6CCCN6C(=O)[C@@H](NC(=O)OC)C(C)C)[nH]5)nc4)ccc3c2)c[nH]1)C(C)C [compound 83],< 1 nM
5,COC(=O)N[C@H](C(=O)N1CCC[C@H]1c1nc(-c2ccc3cc(-c4ccc(-c5cnc([C@@H]6CCCN6C(=O)[C@@H](NC(=O)OC)C6CCOCC6)[nH]5)nc4)ccc3c2)c[nH]1)C(C)C [compound 84],< 1 nM
6,COC(=O)N[C@H](C(=O)N1CCC[C@H]1c1nc(-c2ccc3cc(-c4ccc(-c5cnc([C@@H]6CCCN6C(=O)[C@@H](NC(=O)OC)C(C)C)[nH]5)cc4C)ccc3c2)c[nH]1)C(C)C [compound 85],< 1 nM
7,COC(=O)N[C@H](C(=O)N1CCC[C@H]1c1nc(-c2ccc3cc(-c4ccc(-c5cnc([C@@H]6CCCN6C(=O)[C@@H](NC(=O)OC)C6CCOCC6)[nH]5)cc4C)ccc3c2)c[nH]1)C(C)C [compound 86],< 1 nM
8,COC(=O)N[C@H](C(=O)N1CCC[C@H]1c1ncc(-c2ccc(-c3ccc4cc(-c5c[nH]c([C@@H]6CCCN6C(=O)[C@H](NC(=O)OC)c6ccccc6)n5)ccc4c3)c(C)c2)[nH]1)C(C)C [compound 87],< 1 nM
9,COC(=O)N[C@H](C(=O)N1CCC[C@H]1c1nc(-c2cnc3cc(-c4ccc(-c5cnc([C@@H]6CCCN6C(=O)[C@H](NC(=O)OC6CCOCC6)c6ccccc6)[nH]5)cc4)ccc3c2)c[nH]1)C(C)C [compound 88],< 1 nM
10,COC(=O)N[C@H](C(=O)N1CCC[C@H]1c1nc(-c2cnc3cc(-c4ccc(-c5cnc([C@@H]6CCCN6C(=O)[C@H](NC(=O)OC6CCOCC6)c6ccccc6)[nH]5)cc4)ccc3c2)c[nH]1)C1CCOCC1 [compound 89],< 1 nM
11,COC(=O)N[C@H](C(=O)N1CCC[C@H]1c1ncc(-c2ccc(-c3ccc4cc(-c5c[nH]c([C@@H]6CCCN6C(=O)[C@H](NC(=O)OC)c6ccccc6)n5)ccc4n3)cc2)[nH]1)C1CCOCC1 [compound 90],< 1 nM
12,COC(=O)N[C@H](C(=O)N1CCC[C@H]1c1ncc(-c2ccc(-c3ccc4cc(-c5c[nH]c([C@@H]6CCCN6C(=O)[C@H](NC(=O)OC(C)(C)C)c6ccccc6)n5)ccc4n3)cc2)[nH]1)C1CCOCC1 [compound 91],< 1 nM
13,COC(=O)N[C@H](C(=O)N1CCC[C@H]1c1ncc(-c2ccc(-c3ccc4cc(-c5c[nH]c([C@@H]6CCCN6C(=O)[C@H](NC(=O)OC6CCOCC6)c6ccccc6)n5)ccc4n3)cc2)[nH]1)C1CCOCC1 [compound 92],< 1 nM
14,COC(=O)N[C@H](C(=O)N1CCC[C@H]1c1nc(-c2cnc3cc(-c4ccc(-c5cnc([C@@H]6CCCN6C(=O)[C@@H](NC(=O)OC)C(C)C)[nH]5)nc4)ccc3c2)c[nH]1)C(C)C [compound 93],< 1 nM
15,COC(=O)N[C@H](C(=O)N1CCC[C@H]1c1ncc(-c2ccc(-c3ccc4cc(-c5c[nH]c([C@@H]6CCCN6C(=O)[C@H](NC(=O)OC)c6ccccc6)n5)cnc4c3)cn2)[nH]1)C(C)C [compound 94],< 1 nM
16,COC(=O)N[C@H](C(=O)N1CCC[C@H]1c1ncc(-c2ccc(-c3ccc4cc(-c5c[nH]c([C@@H]6CCCN6C(=O)[C@@H](NC(=O)OC)C6CCOCC6)n5)cnc4c3)cn2)[nH]1)C(C)C [compound 95],< 1 nM
17,COC(=O)N[C@H](C(=O)N1CCC[C@H]1c1nc(-c2ccc3nc(-c4ccc(-c5cnc([C@@H]6CCCN6C(=O)[C@@H](NC(=O)OC)C(C)C)[nH]5)cc4F)ccc3c2)c[nH]1)C(C)C [compound 96],< 1 nM
18,COC(=O)N[C@@H](C(=O)N1CCC[C@H]1c1nc(-c2ccc3nc(-c4ccc(-c5cnc([C@@H]6CCCN6C(=O)[C@H](NC(=O)OC)c6ccccc6)[nH]5)cc4F)ccc3c2)c[nH]1)c1ccccc1 [compound 97],< 1 nM
19,COC(=O)N[C@H](C(=O)N1CCC[C@H]1c1nc(-c2ccc3nc(-c4ccc(-c5cnc([C@@H]6CCCN6C(=O)[C@@H](NC(=O)OC)C6CCOCC6)[nH]5)cc4F)ccc3c2)c[nH]1)C1CCOCC1 [compound 98],< 1 nM
20,COC(=O)N[C@H](C(=O)N1CCC[C@H]1c1nc(-c2ccc3cc(-c4ccc(-c5cnc([C@@H]6CCCN6C(=O)[C@H](NC(=O)OC)c6ccccc6)[nH]5)cc4)ccc3c2)c[nH]1)C1CCOCC1 [compound 99],< 1 nM

row,Compound,EC50
1,COC(=O)N[C@H](C(=O)N1CCC[C@H]1c1nc(-c2ccc3cc(-c4ccc(-c5cnc([C@@H]6CCCN6C(=O)[C@H](NC(=O)OC)c6ccccc6)[nH]5)cc4)ncc3c2)c[nH]1)C1CCOCC1 [compound 100],< 1 nM
2,COC(=O)N[C@H](C(=O)N1CCC[C@H]1c1ncc(-c2ccc(-c3cc4ccc(-c5c[nH]c([C@@H]6CCCN6C(=O)[C@H](NC(=O)OC)c6ccccc6)n5)cc4cn3)cc2)[nH]1)C1CCOCC1 [compound 101],< 1 nM
3,COC(=O)N[C@H](C(=O)N1CCC[C@H]1c1nc(-c2ccc3cc(-c4ccc(-c5cnc([C@@H]6CCCN6C(=O)[C@@H](NC(=O)OC)C(C)C)[nH]5)cc4)ccc3n2)c[nH]1)C(C)C [compound 102],< 1 nM
4,COC(=O)N[C@H](C(=O)N1CCC[C@H]1c1ncc(-c2ccc(-c3ccc4nc(-c5c[nH]c([C@@H]6CCCN6C(=O)[C@H](NC(=O)OC)c6ccccc6)n5)ccc4c3)cc2)[nH]1)C(C)C [compound 103],< 1 nM
5,COC(=O)N[C@H](C(=O)N1CCC[C@H]1c1ncc(-c2ccc(-c3ccc4cc(-c5c[nH]c([C@@H]6CCCN6C(=O)[C@@H](NC(=O)OC)C6CCOCC6)n5)ccc4c3)c(C)c2)[nH]1)C(C)C [compound 104],< 1 nM
6,COC(=O)N[C@H](C(=O)N1CCC[C@H]1c1ncc(-c2ccc(-c3ccc4cc(-c5c[nH]c([C@@H]6CCCN6C(=O)[C@H](NC(=O)OC)c6ccccc6)n5)ccc4c3)cc2)[nH]1)C1CCOCC1 [compound 105],< 1 nM
7,COC(=O)N[C@H](C(=O)N1CCC[C@H]1c1ncc(-c2ccc(-c3ccc4cc(-c5c[nH]c([C@@H]6CCCN6C(=O)[C@H](NC(=O)OC)c6ccccc6)n5)ccc4c3)c(F)c2)[nH]1)C1CCOCC1 [compound 106],< 1 nM
8,COC(=O)N[C@H](C(=O)N1CCC[C@H]1c1nc(-c2ccc3nc(-c4ccc(-c5cnc([C@@H]6CCCN6C(=O)[C@H](NC(=O)OC)c6ccccc6)[nH]5)cc4F)ccc3c2)c[nH]1)C(C)C [compound 107],< 1 nM
9,COC(=O)N[C@H](C(=O)N1CCC[C@H]1c1nc(-c2ccc3nc(-c4ccc(-c5cnc([C@@H]6CCCN6C(=O)[C@@H](NC(=O)OC)C6CCOCC6)[nH]5)c(F)c4)ccc3c2)c[nH]1)C1CCOCC1 [compound 108],< 1 nM
10,COC(=O)N[C@@H](C(=O)N1CCC[C@H]1c1nc(-c2ccc3nc(-c4ccc(-c5cnc([C@@H]6CCCN6C(=O)[C@H](NC(=O)OC)c6ccccc6)[nH]5)c(F)c4)ccc3c2)c[nH]1)c1ccccc1 [compound 109],< 1 nM
11,COC(=O)N[C@H](C(=O)N1CCC[C@H]1c1nc(-c2ccc3cc(-c4ccc(-c5cnc([C@@H]6CCCN6C(=O)[C@H](NC(=O)OC)c6ccsc6)[nH]5)cc4)ccc3c2)c[nH]1)C1CCOCC1 [compound 110],< 1 nM
12,COC(=O)N[C@H](C(=O)N1CCC[C@H]1c1nc(-c2ccc3cc(-c4ccc(-c5cnc([C@@H]6CCCN6C(=O)[C@H](NC(=O)OC)c6ccc(F)cc6)[nH]5)cc4)ccc3c2)c[nH]1)C1CCOCC1 [compound 111],< 1 nM
13,COC(=O)N[C@H](C(=O)N1CCC[C@H]1c1nc(-c2ccc3cc(-c4ccc(-c5cnc([C@@H]6CCCN6C(=O)[C@@H](NC(=O)OC6CCOCC6)c6ccccc6)[nH]5)cc4)ccc3c2)c[nH]1)C1CCOCC1 [compound 112],< 1 nM
14,COC(=O)N[C@H](C(=O)N1CCC[C@H]1c1nc(-c2ccc3cc(-c4ccc(-c5cnc([C@@H]6CCCN6C(=O)[C@H](NC(=O)OC6CCOCC6)c6ccccc6)[nH]5)cc4)ccc3c2)c[nH]1)C1CCOCC1 [compound 113],< 1 nM
15,COC(=O)N[C@H](C(=O)N1CCC[C@H]1c1nc(-c2ccc3cc(-c4ccc(-c5cnc([C@@H]6CCCN6C(=O)[C@H](NC(=O)OC)c6ccccc6)[nH]5)cc4F)ccc3c2)c[nH]1)C1CCOCC1 [compound 114],< 1 nM
16,COC(=O)N[C@H](C(=O)N1CCC[C@H]1c1ncc(-c2ccc3cc(-c4ccc(-c5cnc([C@@H]6CCCN6C(=O)[C@H](NC(=O)OC)c6ccccc6)[nH]5)cc4)ccc3c2)[nH]1)[C@@H](C)OC [compound 115],< 1 nM
17,COC(=O)N[C@H](C(=O)N1CCC[C@H]1c1ncc(-c2ccc3cc(-c4ccc(-c5cnc([C@@H]6CCCN6C(=O)[C@@H](c6ccccc6)N6CCOCC6)[nH]5)cc4)ccc3c2)[nH]1)C(C)C [compound 116],< 1 nM
18,COC(=O)N[C@H](C(=O)N1CCC[C@H]1c1ncc(-c2ccc3cc(-c4ccc(-c5cnc([C@@H]6CCCN6C(=O)[C@H](NC(=O)OC6CCOCC6)c6ccccc6)[nH]5)cc4)ncc3c2)[nH]1)C1CCOCC1 [compound 117],< 1 nM
19,COC(=O)N[C@H](C(=O)N1CCC[C@H]1c1ncc(-c2ccc3cc(-c4ccc(-c5cnc([C@@H]6CCCN6C(=O)[C@H](NC(=O)OC(C)(C)C)c6ccccc6)[nH]5)cc4)ncc3c2)[nH]1)C1CCOCC1 [compound 118],< 1 nM
